Values of other authors in US20070259820A1, “METHODS AND REAGENTS FOR ACTIVATING HEAT SHOCK PROTEIN 70” (THE REGENTS OF THE UNIVERSITY OF MICHIGAN, priority 2006, published 2007).

Key:
Hsp70 [1] = conditions: prior-art statement in background
Hsp70 [2] = conditions: prior-art statement in background; remark: listed apart in the source

Compound	effect on Hsp70's ATPase activity (Hsp70 [1])	binding to Hsp70 in "pull-down" studies (Hsp70 [2])
N=C(N)NCCCCCCC(=O)NC(O)C(=O)NCCCCNCCCN (centres unmarked) [15-deoxyspergualin]	stimulate Hsp70's ATPase activity	
NCCCNCCCCNC(=O)[C@H](O)NC(=O)C[C@@H](O)CCCCN=C(N)N [spergaulin]		bind Hsp70
